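Grown in 96-well plates, cells were treated for 48 hours with each compound at five concentrations. Insufficient inhibition: endpoint recorded as highest concentration tested. GI50: concentration for 50% inhibition of growth. The concentration for full growth arrest is given as TGI.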
Tests used:
Assay in all cases: NCI-60 cell line screen, 48 h
[1] = system: 786-0 renal
[2] = system: A498 renal
[3] = system: A549 NSCLC
[4] = system: BT-549 breast
[5] = system: CAKI-1 renal
[6] = system: CCRF-CEM leukemia
[7] = system: COLO 205 colon
[8] = system: DU-145 prostate
[9] = system: EKVX NSCLC
[10] = system: HCC-2998 colon
[11] = system: HCT-116 colon
[12] = system: HCT-15 colon
[13] = system: HL-60(TB) leukemia
[14] = system: HOP-62 NSCLC
[15] = system: HOP-92 NSCLC
[16] = system: HS 578T breast
[17] = system: HT29 colon
[18] = system: IGROV1 ovarian
[19] = system: K-562 leukemia
[20] = system: KM12 colon
[21] = system: LOX IMVI melanoma
[22] = system: M14 melanoma
[23] = system: MALME-3M melanoma
[24] = system: MCF7 breast
[25] = system: MDA-MB-231 breast
[26] = system: MDA-MB-435
[27] = system: MOLT-4 leukemia
[28] = system: NCI-H226 lung
[29] = system: NCI-H23 lung
[30] = system: NCI-H460 lung
[31] = system: NCI-H522 lung
[32] = system: NCI/ADR-RES ovarian
[33] = system: OVCAR-3 ovarian
[34] = system: OVCAR-4 ovarian
[35] = system: OVCAR-5 ovarian
[36] = system: OVCAR-8 ovarian
[37] = system: PC-3 prostate
[38] = system: RPMI-8226 leukemia
[39] = system: RXF 393 renal
[40] = system: SF-268 CNS
[41] = system: SF-295 CNS
[42] = system: SF-539 CNS
[43] = system: SK-MEL-2 melanoma
[44] = system: SK-MEL-28 melanoma
[45] = system: SK-MEL-5 melanoma
[46] = system: SK-OV-3 ovarian
[47] = system: SN12C renal
[48] = system: SNB-19 CNS
[49] = system: SNB-75 CNS
[50] = system: SR leukemia
[51] = system: SW-620 colon
[52] = system: T-47D breast
[53] = system: TK-10 renal
[54] = system: U251 CNS
[55] = system: UACC-257 melanoma
[56] = system: UACC-62 melanoma
[57] = system: UO-31 renal

CC(=O)c1ccc2c(c1)c1cc(C(C)=O)ccc1n2CCNC(C)C
GI50 [1]: 456 nM | TGI [1]: 3320 nM | GI50 [2]: 398 nM | TGI [2]: 1890 nM | GI50 [3]: 433 nM | TGI [3]: 4310 nM | GI50 [4]: 1290 nM | TGI [4]: 3970 nM | GI50 [5]: 304 nM | TGI [5]: 10500 nM | GI50 [6]: 455 nM | TGI [6]: 2650 nM | GI50 [7]: 331 nM | TGI [7]: 1600 nM | GI50 [8]: 453 nM | TGI [8]: 5420 nM | GI50 [9]: 548 nM | TGI [9]: 4970 nM | GI50 [10]: 635 nM | TGI [10]: 4390 nM | GI50 [11]: 251 nM | TGI [11]: 3690 nM | GI50 [12]: 352 nM | TGI [12]: 3820 nM | GI50 [13]: 362 nM | TGI [13]: 2670 nM | GI50 [14]: 717 nM | TGI [14]: 4630 nM | GI50 [15]: 764 nM | TGI [15]: 4270 nM | GI50 [16]: 828 nM | TGI [16]: 4770 nM | GI50 [17]: 342 nM | TGI [17]: 2180 nM | GI50 [18]: 341 nM | TGI [18]: 6730 nM | GI50 [19]: 332 nM | TGI [19]: 1810 nM | GI50 [20]: 427 nM | TGI [20]: 3400 nM | GI50 [21]: 211 nM | TGI [21]: 526 nM | GI50 [22]: 358 nM | TGI [22]: 1720 nM | GI50 [23]: 230 nM | TGI [23]: 596 nM | GI50 [24]: 294 nM | TGI [24]: 1110 nM | GI50 [25]: 516 nM | TGI [25]: 3160 nM | GI50 [26]: 364 nM | TGI [26]: 1440 nM | GI50 [27]: 337 nM | TGI [27]: 1790 nM | GI50 [28]: 281 nM | TGI [28]: 2190 nM | GI50 [29]: 389 nM | TGI [29]: 2410 nM | GI50 [30]: 308 nM | TGI [30]: 1810 nM | GI50 [31]: 257 nM | TGI [31]: 1130 nM | GI50 [32]: 371 nM | TGI [32]: 8090 nM | GI50 [33]: 506 nM | TGI [33]: 3910 nM | GI50 [34]: 370 nM | TGI [34]: 2900 nM | GI50 [35]: 462 nM | TGI [35]: 5560 nM | GI50 [36]: 373 nM | TGI [36]: 3870 nM | GI50 [37]: 317 nM | TGI [37]: 1760 nM | GI50 [38]: 308 nM | TGI [38]: 1050 nM | GI50 [39]: 289 nM | TGI [39]: 1790 nM | GI50 [40]: 417 nM | TGI [40]: 3330 nM | GI50 [41]: 426 nM | TGI [41]: 2620 nM | GI50 [42]: 478 nM | TGI [42]: 2020 nM | GI50 [43]: 569 nM | TGI [43]: 2230 nM | GI50 [44]: 326 nM | TGI [44]: 1470 nM | GI50 [45]: 291 nM | TGI [45]: 923 nM | GI50 [46]: 1250 nM | TGI [46]: 8760 nM | GI50 [47]: 325 nM | TGI [47]: 2070 nM | GI50 [48]: 300 nM | TGI [48]: 1620 nM | GI50 [49]: 383 nM | TGI [49]: 2410 nM | GI50 [50]: 142 nM | TGI [50]: 11400 nM | GI50 [51]: 249 nM | TGI [51]: 2340 nM | GI50 [52]: 523 nM | TGI [52]: 13000 nM | GI50 [53]: 531 nM | TGI [53]: 5020 nM | GI50 [54]: 386 nM | TGI [54]: 6050 nM | GI50 [55]: 296 nM | TGI [55]: 1310 nM | GI50 [56]: 250 nM | TGI [56]: 780 nM | GI50 [57]: 200 nM | TGI [57]: 704 nM

Reference: PubChem BioAssay (NCI)
